{
  "source": "patent US8753570B2",
  "about": "“Structure, synthesis, and applications for oligo phenylene ethynylenes” (STC.UNM, priority 2008, dated 2014)",
  "tested_on": "Bacillus atrophaeus",
  "assay": "Dark and uv biocidal activity",
  "assay_type": "cell-based",
  "data": [
    {"smiles": "C[N+](C)(C)CCCOc1ccc(C#Cc2ccc(C#Cc3ccc(OCCC[N+](C)(C)C)cc3)cc2)cc1", "note": "[S-OPE-EO]", "values": [
      {"measurement": "killing under uv", "setting": "365 nm uv light, 30 minutes", "value": "almost the same level killing"},
      {"measurement": "killing in the dark", "setting": "dark, 6 hour exposure", "value": "several log kills"},
      {"measurement": "biocidal activity", "setting": "in the dark and upon uv irradiation", "value": "remarkable biocidal activity"}
    ]}
  ]
}
